Patent publication US9359409B2, “Antimicrobial peptides, compositions comprising the same and uses thereof” (priority 2012, dated 2016)
Ends that are not written are not given here.

Experiments:
[1] = test system: Staphylococcus aureus; experiment: MIC by broth microdilution; format: cell-based
Experimental: (§1) The 5 designed and synthesized peptides of the invention, plus omiganan (peptide of the state of the art) were evaluated for their antimicrobial capacity in microdilution assays for determining the minimum inhibitory concentration (MIC). A first panel of 8 representative strains was analyzed in these assays, encompassing Gram positive and Gram negative bacteria. […] The lowest MIC values indicate a higher antimicrobial potency.
(§2) Subsequently, an analysis of a panel of clinical isolates including strains with different resistance mechanisms against conventional antibiotics was carried out, all of which are of clinical relevance. […] In Table 3 the results for a panel of Gram negative bacteria are shown, and in Table 4 for a panel of […] bacteria. In these tables the detected gene/s responsible for the resistance against antibiotics for each strain, are included.
(§3) Antimicrobial activity was analyzed by means of the determination of the MIC (minimum inhibitory concentration) by the microdilution technique. The technique was carried out in the standard fashion according to (CLSI M07-A9 Vol. 32 No 2. January 2012). The peptide concentration range used was from 0.5 μg/mL to 512 μg/mL in two-fold serial dilutions. The used medium was MH Difco broth supplemented with cations, at a final concentration of Ca^++20-25 mg/L and Mg^++10-12.5 mg/L. The working inoculum used corresponds to a 1/100 dilution of a bacterial suspension equivalent to 0.5 in the Mc Farland scale.

[2] = test system: Pseudomonas aeruginosa; experiment: MIC by broth microdilution; format: cell-based
Experimental: as §1, §2, §3

## ILRWPWWPWRRK-NH2 [Omiganan, ILRWPWWPWRRK, reference compound]
[1]; S. aureus 28, resistance gene ermA
  MIC: 32 µg/mL
[1]; S. aureus 33, resistance gene msrA
  MIC: 32 µg/mL
[1]; S. aureus 204, resistance gene ermA
  MIC: 64 µg/mL
[1]; S. aureus 239, resistance gene ermC
  MIC: 32 µg/mL
[1]; S. aureus M2832, resistance gene mecA
  MIC: 64 µg/mL
[1]; S. aureus M4046, resistance gene mecA
  MIC: 32 µg/mL
[1]; S. aureus M6276, resistance gene ermA + lnuA
  MIC: 32 µg/mL
[1]; S. aureus M6784, resistance gene mecA
  MIC: 32 µg/mL
[1]; S. aureus M6820, resistance gene mecA
  MIC: 128 µg/mL
[2]; P. aeruginosa M5109, resistance gene vim
  MIC: 256 µg/mL
[2]; P. aeruginosa M7723, resistance gene kpc
  MIC: 256 µg/mL
[2]; P. aeruginosa M7907, resistance gene per
  MIC: 128 µg/mL
[2]; P. aeruginosa M13513, resistance gene kpc
  MIC: 256 µg/mL
